Read-outs that look alike come from different tables or passages of the source.

The conditions of data set [1]: volunteers, tablets of 900 mg trimebutine, oral.
The test system of data set [2] is sodium currents in DRG neurons. As to the kind of experiment: whole cell patch clamp, sodium currents in DRG neurons. The data set is classed as cell-based, rat. (In general: Patch clamp records ionic current or voltage across a cell membrane.)
For data set [3], the system named is sodium currents in GH3 cells. Description: sodium currents in GH3 cells. The data set is classed as cell-based, rat. The note with it: read-out: IC50, sodium current block (summary statement).
The test system of data set [4] is veratridine-induced glutamate release. As to the kind of experiment: veratridine-induced [3H]-glutamate release from rat spinal cord slices. The following applies: for IC50: read-out: IC50, inhibition of veratridine-induced glutamate release.
In data set [5] the test system is μ-, δ- and κ- opioid receptors. The following applies: rat brain, guinea-pig and canine intestinal receptors; no subtype selectivity; cited from earlier work.
For the next data set, the system named is formalin induced pain. Description: formalin-induced pain. The following applies: for ED50: Rattus norvegicus, sc, read-out: ED50, formalin induced pain (licking time).
Data set [6] concerns voltage-dependent Kv1.1 and Kv1.2 channels. Description: two-electrode voltage clamp, potassium currents in Xenopus oocytes. The following applies: 10 μM, Kv1.1 and Kv1.2 in Xenopus oocytes. A general note: Two-electrode voltage clamp holds a large cell at a set potential and records current.
Experimental: (B) Potassium currents expressed in Xenopus oocytes. Superimposed current traces induced by 400 ms depolarizations at −40 to +20 mV (in 10 mV step from −80 mV).
Two voltage-dependent K^+ channels are considered: the shaker-related Kv1.1 and Kv1.2 channels.
The rat voltage-dependent rKv1.1 and rKv1.2 channels are expressed in Xenopus oocytes. […] The transcriptions are done using the Ambion Megascript (Ambion, USA) and the cRNAs are stored in water at 1 mg/ml. cRNAs injection in Xenopus oocytes is done at 2-4 ng/ml. Defolliculated oocytes are kept in ND96 medium supplemented with 0.1 U/ml gentamicin. The currents are recorded 1-6 days after injection.
A two-electrode voltage clamp amplifier (Geneclamp 500, Axon Instruments) is used to record K^+ currents from Xenopus oocytes. The KCl (3M)-filled electrodes had tip resistance<1 MΩ. The oocytes are continuously superfused with a Ca^2+-free ND96 medium in order to abolish the large Ca^2+-activated Cl^− current present in these cells.
Data set [7] deals with PGE2-induced hyperalgesia. Description: PGE2-induced hyperalgesia (Randall and Selitto's test).
Experimental: Test is carried out with Sprague-Dawley male rats (100-120 grams) on arrival. They are housed 5 per cage and acclimated to the conditions of the animal room for 5 days under a 12/12 day/night cycle and a constant room temperature of 22° C. Food and water are provided ad libidum.
A solution of PGE2 (1 mg/ml) is prepared as a stock solution in a 10% (v/v) alcohol in apyrogen sterile saline and stored at 4° C. for 4 days.
A solution of PGE2 (1 μg/ml) is freshly prepared twice daily in sterile saline and 100 μl is injected subplantar into the left paw of rat, twice daily for 4 days. Using this protocol, hyperalgesia is present for at least a week following completion for 4 days of treatment.
Hyperalgesia is measured by the Randall and Selitto's test (Randall and Setillo,1957) using an analgesimeter (Ugo Basile). The analgesimeter is basically a device which exerts a force that increases at constant rate. The force is applied to the animal's paw which is placed on a small plinth under a cone-shaped pusher. The operator depresses a pedal-switch to start the mechanism with exerts the force. The nociceptive threshold is defined as the force at which the rat withdraws its paw. The threshold is determined before and after treatment.
% of antinociceptive activity is calculated as follows: [formula]
The test system of data set [8] is unilateral peripheral mononeuropathy. As to the kind of experiment: rat mononeuropathy, vocalization threshold to paw pressure. The following applies: for duration of the antinociceptive effect: (S)-Nor-TMB s.c., morphine i.v.
Data set [9] has as its system streptozocin-induced hyperalgesia. As to the kind of experiment: streptozocin-induced diabetic rats, tail immersion test. The data set is classed as in vivo, rat. The following applies: 30 mg/kg s.c. single dose, 30 min or 60 min before test, 44° C. From the text:
FIG. 9: Effect of TMB in diabetic rats.
Streptozocin is a selective pancreatic β-cell toxin, which has been used to induce experimental diabetes in laboratory animals (Tomlinson K. C. et al., 1992,). The resultant loss of endogenous insulin induced by streptozocin mimics the characteristics of type I, or insulin-dependent, diabetes. Streptozocin-induced diabetes has recently been described as a model of chronic pain in rats. It has been reported that streptozocin administration leads to mechanical, thermal, and chemical hyperalgesia as well as mechanical hypersensitivity (Courteix C. et al., 1993; Calcutt N. A. et al., 1996). The most common symptoms of diabetic neuropathy appear to be spontaneous burning pain and mechanical hypersensitivity in the feet or lower limbs.
Test is carried out with male Sprague Dawley rats (Iffa-Credo) weighing 160-180 grams on arrival. […] Food and water are provided ad libidum.
Animals are intraperitoneally injected with streptozocin 75 mg/kg. Control animals are given vehicle in the same conditions. Diabetes are confirmed once a week after injection by measurement of tail vein blood glucose levels with Boehriger glycemia test. […]
The tail of the rat is immersed in a water bath at 44° C. […] Results are expressed as the mean+/−SEM and analysed by a Student's t test after an analysis of variance (Anova one way).

On to `CCC(COC(=O)c1cc(OC)c(OC)c(OC)c1)(c1ccccc1)N(C)C.O=C(O)/C=C\C(=O)O` (racemic) [trimebutine, 2-dimethylamino-2-phenylbutyl 3,4,5-trimethoxybenzoate hydrogen maleate], for which the “time of maximal plasma concentration” value in data set [1] amounted to 1 h. Further, the blocking rate kon in [2] is given as 35-40 10^−3s^−1 μM^−1. For the same compound, in data set [2], the unblocking rate koff is 29 10^−3s^−1. Moreover, the “time constant of channel block” value in data set [2] (10 μM) was determined as 2.2 s. Besides, in [2] (n=6), the “τoff, time constant of recovery from block” value is 34 ± 4 s. Besides, the IC50 (as a rule, the concentration needed to halve the response being measured) was 0.69 µM in [2] (read-out: IC50, best fit to Hill function (FIG. 4D legend)); 1.05 ± 0.09 µM in data set [2] (read-out: IC50, sodium current block (dose-response curve, text)); less than 1 µM in [2] (read-out: IC50, sodium current block (summary statement)); less than 1 µM in data set [3]; more than 100 µM in data set [4] (Rattus norvegicus). In addition, the “concentration at which inhibition of glutamate release is seen / significant” value in data set [4] is “higher than 60 μM”. Also, in [5], the “activity at opioid receptors” value is reported as “weak agonist activity”. Moreover, the ED50 (as a rule, the dose at which the effect has come halfway, by size or by number of responders) in the data set on formalin induced pain amounted to 231 mg/kg. Also, in data set [6], the “K+ current block” value was determined as 23±6%.

Take `CC[C@@](COC(=O)c1cc(OC)c(OC)c(OC)c1)(NC)c1ccccc1` [(R)-Nor-TMB, (R) N-desmethyl trimebutine]: the IC50 in data set [4] (Rattus norvegicus) amounted to 16.3 µM.

Regarding `CC[C@](COC(=O)c1cc(OC)c(OC)c(OC)c1)(c1ccccc1)N(C)C` [(R)-Trimebutine], the “inhibition of PGE2-induced hyperalgesia” value in data set [7] (100 mg/kg s.c.) is 57%. Moreover, the IC50 in [4] (Rattus norvegicus) is more than 100 µM.

Consider `CC[C@](COC(=O)c1cc(OC)c(OC)c(OC)c1)(NC)c1ccccc1` [(S)-Nor-TMB, (S)-N-desmethyl trimebutine], for which the “inhibition of PGE2-induced hyperalgesia” value in data set [7] (20 mg/kg s.c.) is given as “up to 89%”. In [7] (Rattus norvegicus, sc, read-out: ED50, PGE2-induced hyperalgesia), the ED50 amounted to 7 mg/kg. Besides, the IC50 in [4] (Rattus norvegicus) turned out to be 6.3 µM. Moreover, the “antinociceptive effect compared with morphine 1 mg/kg i.v.” value in [8] (3 and 10 mg/kg s.c., amplitude and duration) is listed as “superior to that of morphine”. The “duration of the antinociceptive effect” value in data set [8] was “more than 90 min”. The “dose from which the increase of vocalization pressure threshold is present” value in data set [8] (s.c.) is recorded as not below 1 mg/kg. Also, in data set [8] (vocalization threshold, s.c.), the “antinociceptive effect, contralateral paw” value was “only at the highest dose (10 mg/kg)” and the “antinociceptive effect, nerve-injured paw” value is reported as “significant at all the three doses tested”. Further, the “reaction time of tail withdrawal from hot water” value in [9] is “the same as in control (non diabetic) rats”.

Turning to `CC[C@@](COC(=O)c1cc(OC)c(OC)c(OC)c1)(c1ccccc1)N(C)C` [(S)-Trimebutine], in data set [4] (Rattus norvegicus), the IC50 was determined as 15.2 µM.

For `CCC(COC(=O)c1cc(OC)c(OC)c(OC)c1)(NC)c1ccccc1` (stereo not shown) [Nor-TMB, N-desmethyl trimebutine], the “inhibition parameters (IC50, nH) compared with trimebutine” value in data set [2] (DRG neurons) was “very similar”. In [4] (veratridine 40 μM, rat spinal cord slices), the IC50 stood at 8.4 µM. Further, in the data set with formalin induced pain (s.c., 30 min before testing), the “ED50, formalin induced pain (licking time)” value was 17 mg/kg.

As for `CCCCN1CCCCC1C(=O)Nc1c(C)cccc1C` (stereo not shown) [bupivacaine], the IC50 in data set [4] (Rattus norvegicus) amounted to 8.2 µM.

With `CN1CC[C@]23c4c5ccc(O)c4O[C@H]2[C@@H](O)C=C[C@H]3[C@H]1C5` [morphine], the “effect on veratridine-induced glutamate release” value in [4] (up to 100 μM) was “inactive”. For the same compound, the “duration of the antinociceptive effect” value in data set [8] is listed as “less than 60 min”. The ED50 with formalin induced pain turned out to be 0.51 mg/kg.
